We go through eight compounds from patent US8829033B2, “N-benzylamide substituted derivatives of 2-(acylamido)acetic acid and 2-(acylamido)propionic acids: potent neurological agents” (The University of North Carolina at Chapel Hill, priority 2009, dated 2014).

A short description of series [1]: Behavioral toxicity, rat (po). It is filed as in vivo. Particulars: Sprague-Dawley, in vivo, po, read-out: Rat (po) Tox, TD50. Here is the method: (§1) Tests are conducted in groups of at least 8 mice or rats to determine the intrinsic neurotoxicity (neuromuscular impairment) after administration of the test compound by the route of administration to be used in the pharmacology studies. Neurotoxicity is determined in male CF No 1 mice by the rotarod procedure. Inability of the mouse to maintain its equilibrium in 3 trials during 1 min on this rotating rod (6 rpm) is used as an indication of such impairment. In Sprague-Dawley rats, minimal motor impairment (MMI) is determined by overt evidence of ataxia, abnormal gait, and stance.

Series [2] relates to Mice. As to the kind of experiment: Formalin test (mice, ip). The series is classed as in vivo. Particulars: for Formalin Assay Acute (%) / Formalin Assay Inflam. (%): mice, ip; for Formalin Test (mice, ip) Inflammatory (%): duration of licking as percent of control, late phase. As to the method:
Compounds of the present invention were active in treating pain in a formalin test carried out in accordance with standard techniques, as described in S. Hunskaar et al., J. Neurosci. Methods 14: 69-76 (1985). Briefly, 0.5% formalin is injected into the mouse hind paw to elicit a bi-phasic licking response, where the first acute phase is thought to correspond to the direct stimulation of peripheral fibers and the second (inflammatory) phase is caused by the release of inflammatory mediators.
Spinal/supraspinal plasticity of nociception is considered as a molecular basis for neuropathic pain particularly during the second (late) phase of the test (Dubuisson & Dennis, 1977; Coderre et al., 1990; Coderre & Melzack, 1992), during which most clinically used drugs against neuropathic pain are active.

The test system of series [3] is Mice. As to the kind of experiment: Maximal electroshock seizure (MES) test, mice (ip).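 Further: male albino CF No. 1 mice dosed ip, MES stimulus 50 mA at 60 Hz lasting 0.2 s, efficacy endpoint is loss of hind leg tonic extension.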 In general terms: In the maximal electroshock model the usual endpoint is tonic extension of the hind limbs.
Protocol: (§2) The maximal electroconvulsive shock (MES) test is regarded as a standard screen for anticonvulsant activity in terms of inhibition of seizure spread in generalized tonic-clonic seizures.
(§3) Groups of at least 8 male albino CF No. 1 mice or male albino Sprague-Dawley rats are treated with 10 mL/kg i.p. or 4 mL/kg p.o. of the test compound solution, respectively. The electrical stimulus in the MES test is 50 mA at 60 Hz for mice and 150 mA at 60 Hz for rats, both delivered for 0.2 sec. Abolition of the hind leg tonic extensor component of the seizure is used as the endpoint.
For series [4], the system named is Rat. Briefly: Maximal electroshock seizure (MES) test, rat (po). The following applies: for ED50: Rattus norvegicus. It is filed as in vivo.
Protocol: as §2, §3
Series [5] is described as follows: Neurological toxicity, rotorod test, mice (ip). It is filed as in vivo. The following applies: male, CF No 1, mouse, in vivo. Here is the method:
as §1

In series [6] the test system is Mice. As to the kind of experiment: Neurological toxicity, rotorod test, mice (ip). The series is classed as in vivo. Here is the method: as §1
In general terms: Falling from the rotarod earlier than controls is read as motor impairment.

Series [7] relates to Mice. Briefly: 6 Hz test, mice (ip). The series is classed as in vivo. The following applies: for ED50: Mus musculus, ip, intraperitoneally.
Series [8] concerns Rat. Briefly: Behavioral toxicity, rat (po). It is filed as in vivo. Here is the method: as §1
Series [9] deals with Rats. Briefly: Hippocampal kindling test, rats (ip). The following applies: rats. It is filed as in vivo. As to the method: The kindling model provides a tool to predict a test compound's activity in complex partial seizures.
Male albino Sprague-Dawley rats (n=8) are kindled to a Stage 5 behavioral seizure. They are treated with an appropriate i.p. dose of the test compound after a 1-week, stimulus-free period. The test compound is evaluated for its effect on kindled motor seizures (seizures scores of 4 and 5), limbic behavior seizures (seizure scores between 1 and 3) and after-discharge duration. After 15 min, each rat is stimulated every 30 min for 3-4 h. Following each stimulation, individual seizure scores and after-discharge duration are recorded. The group mean and standard error of the mean (SEM) are calculated for each parameter.

In series [10] the test system is Mice. The following applies: cited from earlier work; for Mice (ip) Mes, ED50: Ref 30, 16, 32.
Series [11] deals with Mice. The following applies: rotorod, Ref 30, 16, 32; cited from earlier work.
Series [12] relates to Rat. Particulars: cited from earlier work.
Setting [13] is: Table b501, orally, behavioral toxicity.
The mark [14] stands for this setting: Table b501, ip, protective index (TD50/ED50).
Setting [15] is: rotorod test, read-out: Mice (ip) Tox, Td50.

Read-outs that look alike come from different tables or passages of the source.

On to `COC[C@@H](NC(C)=O)C(=O)NCc1ccc(OC(F)(F)F)cc1` [(R)-4], for which the TD50 (as a rule, the dose at which the toxic effect under study appears in half of the subjects) in series [1] was greater than 30 mg/kg. Also, in series [2] (dose 4.0 (mg)), the “Formalin Assay Acute (%)” value was 52% and the “Formalin Assay Inflam. (%)” value amounted to 50%. Also, in series [3] (ip, PI=TD50/ED50), the “Mice (ip) PI” value is roughly 9.3. In [4] (read-out: Rat (po) MES, ED50), the median effective dose (ED50) (commonly the midpoint of the dose-response relation) is greater than 30 mg/kg.
Take `COCCCc1ccc(CNC(=O)[C@@H](COC)NC(C)=O)cc1` [(R)-7]: the TD50 in series [5] (read-out: Mice (ip) Tox, TD50) was 62 mg/kg; in series [1], greater than 500 mg/kg. Also, the ED50 in series [4] (read-out: Rat (po) MES, ED50) came out at 16 mg/kg.
The corresponding values for `COCc1ccc(CNC(=O)[C@@H](COC)NC(C)=O)cc1` [(R)-8] are 180 mg/kg, greater than 500 mg/kg and 45 mg/kg.
On to `COC[C@@H](NC(C)=O)C(=O)NCc1ccc(OCc2cccc(F)c2)cc1` [(R)-10, (R)-2-Acetamido-N-(4-(3-fluorobenzyloxy)benzyl)-3-methoxypropanamide], for which the “Mice (ip) Tox, TD50” value is 26 [0.5] mg/kg in [6] (Table b500, rotorod test) and 26 [0.5] mg/kg in series [6] (Table b502, rotorod test). The “Mice (ip) Tox, Td50” value in series [6] (rotorod test) is 26 [0.5] mg/kg. For the same compound, the “Mice (ip) 6 Hz, ED50” value in [7] (Table b500, intraperitoneally) was ~10 [0.25] mg/kg; in series [7] (Table b501, intraperitoneally) it was ~10 [0.25] mg/kg; in series [7] (Table b502, intraperitoneally), ~10 [0.25] mg/kg. Also, the “Rat (po) Tox, TD50” value was >500 [0.5] mg/kg in series [8] (Table b500, orally, behavioral toxicity); >500 [0.5] mg/kg in series [8] (setting [13]); >500 [0.5] mg/kg in series [8] (Table b502, orally, behavioral toxicity); greater than 280 mg/kg in series [8] (po). Also, the “Formalin Test (mice, ip) Inflammatory (%)” value in series [2] (dose 15 mg/kg) is listed as 44 (10) %. For the same compound, the “Formalin Assay Acute (%)” value in [2] (dose 25 (mg)) was determined as 80%. For the same compound, the “Formalin Assay Inflam. (%)” value in series [2] (dose 25 (mg)) came to 70%. Moreover, the “Preliminary Hippocampal Kindling Test (Rats) After discharge duration, Drug” value in series [9] (after drug (pre-drug duration in neighbouring column)) stood at 0 s. The “Preliminary Hippocampal Kindling Test (Rats) Seizure Score, Drug” value in [9] (after drug (pre-drug score in neighbouring column)) worked out at 0. Besides, the “Mice (ip) PI” value in series [3] (Table b500, ip, protective index (TD50/ED50)) is given as 2; in series [3] (setting [14]) it was 2; in series [3] (Table b502, ip, protective index (TD50/ED50)), 2; in series [3] (ip, PI=TD50/ED50), roughly 3.1. The “Mice (ip) MES, ED50” value in series [3] (Table b501, intraperitoneally) was 13 [0.25] mg/kg; in series [3] (Table b502, intraperitoneally), 13 [0.25] mg/kg. Besides, the “Rat (po) MES, ED50” value in series [4] is 4.9 [1]. Besides, the “Rat (po) PI” value in series [4] (PI=TD50/ED50) was greater than 57; in series [4] (Table b500, protective index (TD50/ED50)), greater than 36; in series [4] (Table b501, protective index (TD50/ED50)), greater than 36; in [4] (Table b502, protective index (TD50/ED50)), greater than 36. Also, the ED50 in [4] (Table b500, orally, read-out: Rat (po) MES, ED50) was 14 mg/kg; in [4] (Table b502, orally, read-out: Rat (po) MES, ED50), 14 mg/kg; in series [4] (read-out: Rat (po) MES, ED50, Table b501, orally), 1.4 mg/kg.
For `COC[C@@H](NC(C)=O)C(=O)NCc1ccc(Oc2cccc(F)c2)cc1` [(R)-12, (R)—N-4′-((3″-Fluoro)phenoxy)benzyl 2-N-Acetamido-3-methoxypropionamide], the melting point (commonly the temperature, or range, at which the solid turns liquid) fell in the range of 125 to 126 °C. Besides, the TD50 in [5] (setting [15]) was 23 mg/kg. Moreover, the ED50 in series [7] is roughly 10 mg/kg. Moreover, in series [8] (setting [13]), the “Rat (po) Tox, TD50” value is >10 [0.25-4.0] mg/kg. Moreover, the “Mice (ip) MES, ED50” value in series [3] (Table b501, intraperitoneally) is 5.5 [0.25] (3.2-6.3) mg/kg. In series [3] (setting [14]), the “Mice (ip) PI” value amounted to 4.2.
`COC[C@@H](NC(C)=O)C(=O)NCc1ccc(/C=C/c2cccc(F)c2)cc1` [(R)-14, (2-R,E)-N-4-(3-Fluorostyryl)benzyl 2-Acetamido-3-methoxypropionamide] returned a melting point of 206 to 208 °C. The TD50 in series [5] (setting [15]) lay in the range of 100 to 300 mg/kg. In addition, the ED50 in [7] is less than 30 mg/kg. For the same compound, in series [3] (Table b501, intraperitoneally), the “Mice (ip) MES, ED50” value was >30, <100 [0.5] mg/kg.
Take `CC(=O)N[C@@H](C)C(=O)NCc1ccccc1` [(S)-4, reference compound]: the “Mice (ip) Mes, ED50” value in series [10] is recorded as 8.0 mg/kg. For the same compound, in [11], the “Mice (ip) Tox, TD50” value is recorded as 630 mg/kg.
With `CCCC(CCC)C(=O)O` [valproate], the “Mice (ip) Mes, ED50” value in series [10] is 270 [0.25] mg/kg. In addition, the “Mice (ip) PI” value in [10] (Ref 32) and in series [10] (reference drugs marked h) was 1.6 each time. In [10] (reference drugs marked h), the “Mice (ip) MES, ED50” value is 270 [0.25]. For the same compound, the “Rat (po) MES, ED50” value in series [12] (Ref 16, 32) is 490 [0.5] mg/kg; in series [12] (reference drugs marked h), 490 [0.5]. For the same compound, the “Rat (po) PI” value in series [12] (Ref 32) and in [12] (reference drugs marked h) was 0.6 throughout. Besides, the “Formalin Test (mice, ip) Inflammatory (%)” value in series [2] (dose 300 mg/kg) is reported as 67 (20) %. Moreover, in [9] (Rattus norvegicus, ip, read-out: Hippocampal Kindled Rats (ip) ED50 (interval)), the 50% effective dose (ED50) turned out to be 214 mg/kg.
